Laboratory results: PubChem BioAssay AID1963429 (Molecular Pharmacology Branch, DTP, NCI, 2024)
Where “and” joins values, the source holds several entries; their conditions need not be identical. Equal values may be shown once. Values belong to the compound of their own block, whether it stands above or below them.

Test system: 126254-015-R-J1-PDC complex spheroid growth, % test/control
Assay: Anticancer human tumor 126254-015-R-J1-PDC patient-derived soft tissue sarcoma cell line growth inhibition [Asc]
Conditions: for viability, T/C: stronger effect = lower value
Procedure: Multicellular complex tumor spheroid response to apoptosis pathway targeting inhibitors Alrizomadlin, Pelcitoclax, and Dasminapant in combination with a variety of drugs and investigational agents in selected tumor cell lines
The MDM2 inhibitor alrizomadlin, the Bcl-2/Bcl-xL inhibitor pelcitoclax, and the IAPs inhibitor dasminapant were evaluated both individually and in combination with standard of care and investigational anticancer small molecules within a complex spheroid model of solid tumors. . Complex spheroids include a stromal component modeled by human endothelial cells (HUVEC) and fibroblasts modeled by human mesenchymal stem cells (MSCs). The concentration ranges selected for each drug and investigational agent were based upon clinically achievable concentrations if the clinical Cmax of the agent was known.
Compounds. The drugs and investigational agents: alrizomadlin (APG-115; NSC831270), pelcitoclax (APG-1252; NSC835773), dasminapant (APG-1387;NSC834197), TAK-243 (NSC785004), copanlisib (NSC809693), olaparib (NSC753686), talazoparib (NSC767125), cobimetinib (NSC 768068), eltanexor (KPT-8602, NSC 794443), abemaciclib (NSC 768073), sotorasib (NSC818433), adagrasib (NSC 831453), MRTX-1133 (NSC 836407), Iadademestat (ORY1001, NSC 806812), and RMC-4630 (NSC839698), were obtained from the NCI Developmental Therapeutics Program Chemical Repository. The FDA-approved anticancer drug set is available from the Developmental Therapeutics Program at https://dtp.cancer.gov/organization/dscb/obtaining/available plates.htm. […] The stock solutions were prepared in dimethyl sulfoxide (DMSO, Sigma-Aldrich, St. Louis, MO, cat. D2650) at 800-fold the tested concentration and stored at -70 degrees C prior to their use. All drugs and investigational agents were tested over a range starting from a high concentration at or near the clinical Cmax and decreasing in half-log increments. If the clinical Cmax for an agent had not been determined, the highest concentration tested was 10 microM.
The patient-derived cancer (PDC) cell lines include five colon adenocarcinomas: 186277-243-T-J2-PDC, 616215-338-R-J1-PDC, 439559-082-T-J2-PDC, 463943-066-T-J2-PDC, and 519858-162-T-J1-PDC; three pancreatic carcinomas: 323965-272-R-J2-PDC, 521955-158-R6-J3-PDC, and 521955-158-R2-J5-PDC; two uterine sarcomas: 327498-152-R-J2-PDC and 993429-296-R-J1-PDC; two rhabdomyosarcomas: 755483-174-R-J1-PDC and 772245-204-R-J1-PDC; two soft tissue sarcomas: 126254-015-R-J1-PDC and 494315-158-R-J1-PDC; two malignant fibrous histiocytomas: 317291-083-R-J1-PDC and 596521-263-R-J1-PDC; two breast carcinomas: 171881-019-R-J1-PDC and 885512-296-R-J2-PDC; and one ovarian carcinoma: 6556581-035-R-J-PDC were obtained from the NCI PDMR, (https://pdmr.cancer.gov). The established cell lines HSSY-2 synovial sarcoma (RRID:CVCL 8719), SYO-1 synovial sarcoma (RRID:CVCL_7146), MPNST malignant peripheral neural sheath tumor were obtained from the Sloan Kettering Institute. The following established cell lines were purchased from the American Type Culture Collection (ATCC, Manassas, VA), Sor the received from the NCI repository:, PANC-1 pancreatic carcinoma (CRL-1469, RRID:CVCL_0480), OVCAR-5 ovarian carcinoma (RRID:CVCL_1628), OVCAR-8 ovarian carcinoma (RRID:CVCL_1629), , MCF-7 breast carcinoma (CRL-12584, RRID:CVCL_0031), MDA-MB-231 breast carcinoma (CRL-12532, RRID:CVCL_0062), NCI-H1876 small cell lung carcinoma (CRL-5902, RRID:CVCL_1503), NCI-H510A small cell lung carcinoma (HTB-184, RRID:CVCL_1565), NCI-H1417 (CRL-5869, RRID:CVCL_1469), and NCI-H196 small cell lung carcinoma (CRL-5823, RRID:CVCL_1509). Dr. Peter Houghton (Greehey Children's Cancer Research Institute, University of Texas Health Science Center, San Antonio, TX) provided Rh-18 rhabdomyosarcoma (RRID:CVCL_1659). Pooled donor human umbilical vein endothelial cells (HUVEC, Lonza, cat. CC-2519) and human mesenchymal stem cells (hMSC, Lonza, cat. PT-2501) were purchased from Lonza (Walkersville, MD).
Cell Culture. […]

[1] = curve of first compound, second compound 0.1 µM
[2] = curve of first compound, second compound 0.316 µM
[3] = curve of first compound, second compound 1 µM
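Also: spheroids exposed to compound for seven days.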
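For viability, T/C in this document: 100% = DMSO vehicle control wells.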

IC50 [1]: > 0.1 µM
IC50 [2]: > 0.1 µM
IC50 [3]: > 0.1 µM
IC50 (curve of first compound, second compound 3.16 µM): > 0.1 µM
IC50 (curve of first compound, second compound 10 µM): 0.0993 µM
SMILES: Cn1ncnc1[C@H]1c2n[nH]c(=O)c3cc(F)cc(c23)N[C@@H]1c1ccc(F)cc1 + Cc1c(S(C)(=O)=O)c(-c2cc(F)cc(N3CCN(c4ccc(NS(=O)(=O)c5ccc(NC(CCN6CCC(C(=O)OCCCP(=O)(O)O)CC6)CSc6ccccc6)c(S(=O)(=O)C(F)(F)F)c5)cc4)CC3)c2)c(-c2ccc(Cl)cc2)n1C(C)C
viability, T/C (second compound 0.1 µM, first compound 0.000316 µM): 90.6%
viability, T/C (second compound 0.1 µM, first compound 0.001 µM): 89.9%
viability, T/C (second compound 0.1 µM, first compound 0.00316 µM): 82.1%
viability, T/C (second compound 0.1 µM, first compound 0.01 µM): 73.9%
viability, T/C (second compound 0.1 µM, first compound 0.0316 µM): 76.9%
viability, T/C (second compound 0.1 µM, first compound 0.1 µM): 65.2%
viability, T/C (second compound 0.316 µM, first compound 0.000316 µM): 87.7%
viability, T/C (second compound 0.316 µM, first compound 0.001 µM): 79%
viability, T/C (second compound 0.316 µM, first compound 0.00316 µM): 71.6%
viability, T/C (second compound 0.316 µM, first compound 0.01 µM): 69.2%
viability, T/C (second compound 0.316 µM, first compound 0.0316 µM): 69.7%
viability, T/C (second compound 0.316 µM, first compound 0.1 µM): 58.5%
viability, T/C (second compound 1 µM, first compound 0.000316 µM): 79%
viability, T/C (second compound 1 µM, first compound 0.001 µM): 85.1%
viability, T/C (second compound 1 µM, first compound 0.00316 µM): 78.4%
viability, T/C (second compound 1 µM, first compound 0.01 µM): 63.9%
viability, T/C (second compound 1 µM, first compound 0.0316 µM): 64%
viability, T/C (second compound 1 µM, first compound 0.1 µM): 61.6%
viability, T/C (second compound 3.16 µM, first compound 0.000316 µM): 83.4%
viability, T/C (second compound 3.16 µM, first compound 0.001 µM): 68%
viability, T/C (second compound 3.16 µM, first compound 0.00316 µM): 70.3%
viability, T/C (second compound 3.16 µM, first compound 0.01 µM): 61%
viability, T/C (second compound 3.16 µM, first compound 0.0316 µM): 57.5%
viability, T/C (second compound 3.16 µM, first compound 0.1 µM): 55%
viability, T/C (second compound 10 µM, first compound 0.000316 µM): 82%
viability, T/C (second compound 10 µM, first compound 0.001 µM): 72%
viability, T/C (second compound 10 µM, first compound 0.00316 µM): 77.7%
viability, T/C (second compound 10 µM, first compound 0.01 µM): 68.7%
viability, T/C (second compound 10 µM, first compound 0.0316 µM): 55.2%
viability, T/C (second compound 10 µM, first compound 0.1 µM): 50%

IC50 (curve of compound): 0.0499 µM and 0.0456 µM and 0.121 µM
SMILES: NC(=O)C(=Cn1cnc(-c2cc(C(F)(F)F)cc(C(F)(F)F)c2)n1)c1cncnc1
viability, T/C (compound 0.000949 µM): 104% and 107% and 110%
viability, T/C (compound 0.003 µM): 92.3% and 94% and 104%
viability, T/C (compound 0.00949 µM): 86.1% and 82.2% and 93.2%
viability, T/C (compound 0.03 µM): 63.4% and 58.5% and 84.6%
viability, T/C (compound 0.0949 µM): 33.2% and 34.4% and 57.5%
viability, T/C (compound 0.3 µM): 13.9% and 15.5% and 19.8%

IC50 (curve of first compound, second compound 0.01 µM): 2.52 µM
IC50 (curve of first compound, second compound 0.0316 µM): 0.893 µM
IC50 [1]: 0.443 µM
IC50 [2]: 0.264 µM
IC50 [3]: 0.196 µM
SMILES: Cc1nc(N2CCC3(CC2)COC(C)C3N)c(CO)nc1Sc1ccnc(N)c1Cl (configuration not stated) + CNC(C)C(=O)NC1CN(S(=O)(=O)c2cccc(S(=O)(=O)N3CCC4CCC(C(=O)NC(c5ccccc5)c5ccccc5)N4C(=O)C(NC(=O)C(C)NC)C3)c2)CCC2CCC(C(=O)NC(c3ccccc3)c3ccccc3)N2C1=O
viability, T/C (second compound 0.01 µM, first compound 0.00949 µM): 93.8%
viability, T/C (second compound 0.01 µM, first compound 0.03 µM): 91.4%
viability, T/C (second compound 0.01 µM, first compound 0.0949 µM): 76.8%
viability, T/C (second compound 0.01 µM, first compound 0.3 µM): 65.9%
viability, T/C (second compound 0.01 µM, first compound 0.949 µM): 63.4%
viability, T/C (second compound 0.01 µM, first compound 3 µM): 46.8%
viability, T/C (second compound 0.0316 µM, first compound 0.00949 µM): 76%
viability, T/C (second compound 0.0316 µM, first compound 0.03 µM): 73.8%
viability, T/C (second compound 0.0316 µM, first compound 0.0949 µM): 67.9%
viability, T/C (second compound 0.0316 µM, first compound 0.3 µM): 67.5%
viability, T/C (second compound 0.0316 µM, first compound 0.949 µM): 48.4%
viability, T/C (second compound 0.0316 µM, first compound 3 µM): 42.2%
viability, T/C (second compound 0.1 µM, first compound 0.00949 µM): 72.7%
viability, T/C (second compound 0.1 µM, first compound 0.03 µM): 63%
viability, T/C (second compound 0.1 µM, first compound 0.0949 µM): 57.6%
viability, T/C (second compound 0.1 µM, first compound 0.3 µM): 52.5%
viability, T/C (second compound 0.1 µM, first compound 0.949 µM): 49.4%
viability, T/C (second compound 0.1 µM, first compound 3 µM): 35.5%
viability, T/C (second compound 0.316 µM, first compound 0.00949 µM): 57.8%
viability, T/C (second compound 0.316 µM, first compound 0.03 µM): 55.4%
viability, T/C (second compound 0.316 µM, first compound 0.0949 µM): 56.3%
viability, T/C (second compound 0.316 µM, first compound 0.3 µM): 52.1%
viability, T/C (second compound 0.316 µM, first compound 0.949 µM): 38.6%
viability, T/C (second compound 0.316 µM, first compound 3 µM): 41.9%
viability, T/C (second compound 1 µM, first compound 0.00949 µM): 57.6%
viability, T/C (second compound 1 µM, first compound 0.03 µM): 59.6%
viability, T/C (second compound 1 µM, first compound 0.0949 µM): 59.6%
viability, T/C (second compound 1 µM, first compound 0.3 µM): 44.7%
viability, T/C (second compound 1 µM, first compound 0.949 µM): 30%
viability, T/C (second compound 1 µM, first compound 3 µM): 33.5%
